Results reported in patent US20180214428A1, “3-(1H-INDOL-2-YL)-1H-PYRAZOLO[3,4-B]PYRIDINES AND THERAPEUTIC USES THEREOF” (Samumed, LLC, priority 2015, published 2018).

What was measured:
[1] = system: primary human mesenchymal stem cells (hMSCs); assay: Induction of chondrogenesis in primary human mesenchymal stem cells; assay type: cell-based; conditions: Homo sapiens, Mesenchymal stem cells, 144 h, 6 days; for Emax: chondrogenic nodules, TGF-β3 (10 ng/mL) positive control, read-out: Max. Activity as % TGF-β3 activity; for EC50: concentration required to induce 50% levels of chondrogenesis vs TGF-β3, read-out: Conc (nM) of 50% TGF-β3 activity
Experimental: Representative compounds were screened using primary human mesenchymal stem cells (hMSCs) to determine their ability to induce chondrogenesis (process by which cartilage is developed).
Primary human mesenchymal stem cells (hMSCs) were purchased from Lonza (Walkersville, Md.) and expanded in Mesenchymal Stem Cell Growth Media (Lonza). Cells between passage 3 and 6 were used for the experiments.
Each compound was dissolved in DMSO as a 10 mM stock and used to prepare compound source plates. Serial dilution (1:3, 6-point dose-response curves from 2700 nM to 10 nM) and compound transfer was performed using the ECHO 550 (Labcyte, Sunnyvale, Calif.) into 96-well clear bottom assay plates (Greiner Bio-One) with appropriate DMSO backfill for a final DMSO concentration of 0.03%. hMSCs were plated at 20,000 cells/well in 250 μL/well Incomplete Chondrogenic Induction Medium (Lonza; DMEM, dexamethasone, ascorbate, insulin-transferrin-selenium [ITS supplement], gentamycin-amphotericin [GA-1000], sodium pyruvate, proline and L-glutamine). TGF-β3 (10 ng/mL) was used as a positive control for differentiation while negative control wells were treated with 75 nL DMSO for normalization and calculating EC50 values. Cells were incubated at 37° C. and 5% CO2 for 6 days. To image chondrogenic nodules, the cells were fixed using 4% formaldehyde (Electron Microscopy Sciences), and stained with 2 μg/mL Rhodamine B (Sigma-Aldrich) and 20 μM Nile Red (Sigma-Aldrich) [Johnson K., et. al, A Stem Cell-Based Approach to Cartilage Repair, Science, (2012). 336(6082), 717-721]. The nodules imaged (4 images per well at 4× magnification) by excitation at 531 nm and emission at 625 nm and quantified using the CellInsight CX5 (Thermo Scientific). Number of nodules in each well was normalized to the average of 3 DMSO treated wells on the same plate using Excel (Microsoft Inc.). The normalized averages (fold change over DMSO) of 3 replicate wells for each compound concentration were calculated. Due to solubility limitations of some of the compounds, curve fitting was incomplete leading to inaccurate EC50 determinations.
Using TGF-β3 as a positive control, the concentration of representative compounds required to induce 50% levels of chondrogenesis is reported. In addition, the maximum activity of each compound and the respective dose that each compound reached maximum chondrogenesis activity is reported.

[2] = system: IL-6; assay: IL-6 inhibition in LPS-stimulated THP-1 monocytes (HTRF); assay type: cell-based, human; conditions: Homo sapiens; THP-1 cells, 500 ng/mL LPS, 22 h, HTRF IL-6 readout; 10-point dose-response from 10 μM
Outline: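 THP-1 cells serum-reduced (1% FBS, 24 h), then 5000 cells/well preincubated 2 h with compound (10-point 1:3 series from 10 μM, 0.1% DMSO) before 500 ng/mL LPS for 22 h at 37 °C. Secreted IL-6 quantified by HTRF 665/620 ratio; DMSO-normalised duplicates fitted to four-parameter EC50; above 10 μM, % inhibition at 10 μM given.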

EC50 [1] | EC50 [2] | Structure (SMILES) | Emax [1]
900 nM | 0.157 µM | CS(=O)(=O)NCc1cc(F)cc(-c2cccc3[nH]c(-c4n[nH]c5ncc(-c6cncc(N)c6)cc45)cc23)c1 [Compound 453, N-(3-(2-(5-(5-Aminopyridin-3-yl)-1H-pyrazolo[3,4-b]pyridin-3-yl)-1H-indol-4-yl)-5-fluorobenzyl)methanesulfonamide] | 189%
100 nM | 0.451 µM | CN(C)Cc1cncc(-c2cnc3[nH]nc(-c4cc5c(-c6cc(F)cc(CNS(C)(=O)=O)c6)cccc5[nH]4)c3c2)c1 [Compound 463, N-(3-(2-(5-(5-((Dimethylamino)methyl)pyridin-3-yl)-1H-pyrazolo[3,4-b]pyridin-3-yl)-1H-indol-4-yl)-5-fluorobenzyl)methane sulfonamide] | 65%
– | 1.98 µM | CN(C)CCOc1cncc(-c2cnc3[nH]nc(-c4cc5c(-c6cccnc6)cccc5[nH]4)c3c2)c1 [Compound 565, N,N-Dimethyl-2-((5-(3-(4-(pyridin-3-yl)-1H-indol-2-yl)-1H-pyrazolo[3,4-b]pyridin-5-yl)pyridin-3-yl)oxy)ethan-1-amine] | 46%
– | 0.247 µM | O=C(CC1CCNCC1)Nc1cncc(-c2cnc3[nH]nc(-c4cc5c(-c6ccccn6)cccc5[nH]4)c3c2)c1 [Compound 595, 2-(Piperidin-4-yl)-N-(5-(3-(4-(pyridin-2-yl)-1H-indol-2-yl)-1H-pyrazolo[3,4-b]pyridin-5-yl)pyridin-3-yl)acetamide] | 79%
– | 4.35 µM | Cc1ncc(-c2cnc3[nH]nc(-c4cc5ccccc5[nH]4)c3c2)n1C [Compound 655, 5-(1,2-Dimethyl-1H-imidazol-5-yl)-3-(1H-indol-2-yl)-1H-pyrazolo[3,4-b]pyridine] | 47%
30 nM | 1.8 µM | CN(C)CCNc1cc(F)cc(-c2cccc3[nH]c(-c4n[nH]c5ncc(-c6cncc(OC7CCCCC7)c6)cc45)cc23)c1 [Compound 785, N^1-(3-(2-(5-(5-(Cyclohexyloxy)pyridin-3-yl)-1H-pyrazolo[3,4-b]pyridin-3-yl)-1H-indol-4-yl)-5-fluorophenyl)-N^2,N^2-dimethylethane-1,2-diamine] | 147%
